Assay results: patent publication US20070191336A1 (priority 2003, published 2007)

Biological target: T1, phospho p-38 alpha kinase (Homo sapiens, UniProt Q16539)
T1 construct: purchased Panvera
Test: P-38 alpha kinase assay (spectrophotometric, pyruvate kinase/lactate dehydrogenase coupled)
Type: biochemical
Details: for IC50: Table 3, rates from […] to 2 h time frame; for inhibition at 0.1 µM / inhibition at 1 µM: read-out: % Inhibition @ concentration, Table 3
Procedure: In this assay, the oxidation of NADH was continuously measured spectrophometrically. […] The reaction was initiated by adding ATP. The absorption at 340 nm was monitored continuously for up to 4 hours at 30° C. on Polarstar Optima plate reader (BMG). The kinase activity (reaction rate) was calculated from the slope at the time frame from 1.5 h to 2 h.
For inhibition determinations, test compounds were incubated with the reaction mixture for ˜5 min before adding ATP to start the reaction. […] IC50 values were calculated from a series of % inhibition values determined at a range of concentrations of each inhibitor using Prism to process the data and fit inhibition curves. Generally, the rates obtained at the time frame of 1.5 h to 2 h were used for these calculations.

T1 sequence (Q16539 whole entry): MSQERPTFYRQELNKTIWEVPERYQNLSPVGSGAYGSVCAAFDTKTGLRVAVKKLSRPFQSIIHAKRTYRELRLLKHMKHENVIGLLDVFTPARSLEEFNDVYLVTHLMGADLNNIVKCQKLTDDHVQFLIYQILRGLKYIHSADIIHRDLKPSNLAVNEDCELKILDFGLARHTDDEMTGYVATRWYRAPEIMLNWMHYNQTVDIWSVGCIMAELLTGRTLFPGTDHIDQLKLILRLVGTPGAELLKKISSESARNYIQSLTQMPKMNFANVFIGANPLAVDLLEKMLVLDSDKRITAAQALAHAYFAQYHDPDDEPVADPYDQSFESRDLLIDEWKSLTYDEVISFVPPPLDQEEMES

Structure (SMILES)	IC50 [µM]	inhibition at 0.1 µM [%]	inhibition at 1 µM [%]
CCOC(=O)c1cccc(-n2nc(C(C)(C)C)cc2NC(=O)Nc2ccc3c(c2)OCO3)c1 [Example 396, ethyl 3-{5-[3-(benzo[d][1,3]dioxo-5-yl)ureido]-3-t-butyl-1H-pyrazol-1-yl}benzoate]		3	56
CCOC(=O)Cc1cccc(-n2nc(C(C)(C)C)cc2NC(=O)Nc2ccc3c(c2)OCO3)c1 [Example 399, ethyl 2-(3-{5-[3-(benzo[d][1,3]dioxol-5-yl)ureido]-3-t-butyl-1H-pyrazol-1-yl}phenyl)-acetate]		21	74
CC(C)(C)c1cc(NC(=O)Nc2ccc3c(c2)OCO3)n(-c2cccc(CCN)c2)n1 [Example 404, 1-{1-[3-(2-aminoethyl)phenyl]-3-t-butyl-1H-pyrazol-5-yl}-3-(benzo[d][1,3]dioxol-5-yl)urea]		-11	48
CC(C)(C)c1cc(NC(=O)Nc2cccc(Cl)c2)n(-c2cccc(CO)c2)n1 [Example 406]	0.0134		
COc1cccc(NC(=O)Nc2cc(C(C)(C)C)nn2-c2cccc(CO)c2)c1 [Example 409, 1-{3-t-butyl-1-[3-(hydroxymethyl)phenyl]-1H-pyrazol-5-yl}-3-(3-methoxyphenyl)urea]	0.0309		
COc1ccc(-n2nc(C(C)(C)C)cc2NC(=O)Nc2cccc(F)c2F)cc1 [Example 415, 1-[3-t-butyl-1-(4-methoxyphenyl)-1H-pyrazol-5-yl]-3-(2,3-difluorophenyl)urea]		28	69
CCOC(=O)CCc1cccc(-n2nc(C(C)C)cc2NC(=O)Nc2ccc(Cl)cc2)c1 [Example 416, ethyl 3-(3-(5-(3-(4-chlorophenyl)ureido)-3-isopropyl-1H-pyrazol-1-yl)phenyl)propanoate]		67	83
CC(C)(C)c1cc(NC(=O)Nc2cccc(F)c2F)n(-c2ccc(CO)cc2)n1 [Example 418, 1-{3-t-butyl-1-[4-(hydroxymethyl)phenyl]-1H-pyrazol-5-yl}-3-(2,3-difluoro-phenyl)urea]	0.075		
CC(Cc1cccc(-n2nc(C(C)(C)C)cc2NC(=O)Nc2cccc(Cl)c2Cl)c1)C(=O)O (stereo not drawn) [Example 426, 3-(3-{3-t-butyl-5-[3-(2,3-dichlorophenyl)ureido]-1H-pyrazol-1-yl}-phenyl)-2-methylpropanoic acid]	0.013		

Second part, led by results:

IC50 [µM]	Structure (SMILES)	inhibition at 0.1 µM [%]	inhibition at 1 µM [%]
0.4	CC(C)(C)c1cc(NC(=O)Nc2ccc(Cl)cc2)n(-c2cccc(C(N)=O)c2)n1 [Example 393, 1-[3-t-butyl-1-(3-carbamoylphenyl)-1H-pyrazol-5-yl]-3-(4-chlorophenyl)urea]		
0.056	CC(C)(C)c1cc(NC(=O)Nc2cccc(F)c2F)n(-c2cccc(CO)c2)n1 [Example 395, 1-{3-t-butyl-1-[3-(hydroxymethyl)phenyl]-1H-pyrazol-5-yl}-3-(2,3-difluorophenyl)urea]		
0.04	CC(C)(C)c1cc(NC(=O)Nc2ccc3c(c2)OCO3)n(-c2cccc(CO)c2)n1 [Example 397, 1-(benzo[d][1,3]dioxol-5-yl)-3-(3-t-butyl-1-(3-(hydroxymethyl)phenyl)-1H -pyrazol-5-yl)urea]		
0.0103	CC(C)(C)c1cc(NC(=O)Nc2cccc(Br)c2)n(-c2cccc(CO)c2)n1 [Example 407, 1-{3-t-butyl-1-[3-(hydroxymethyl)phenyl]-1H-pyrazol-5-yl}-3-(3-bromophenyl)urea]		
0.116	CC(C)(C)c1cc(NC(=O)Nc2cccc(C(F)(F)F)c2)n(-c2cccc(CO)c2)n1 [Example 408, 1-{3-t-butyl-1-[3-(hydroxymethyl)phenyl]-1H-pyrazol-5-yl}-3-(3-(trifluoromethyl)phenyl)urea]		
0.0147	CCOC(=O)Cc1ccc(-n2nc(C(C)(C)C)cc2NC(=O)Nc2ccc(Cl)cc2)cc1 [Example 420, ethyl 2-(4-{3-t-butyl-5-[3-(4-chlorophenyl)ureido]-1H-pyrazol-1-yl}phenyl)acetate]		
0.0147	CCOC(=O)Cc1ccc(-n2nc(C(C)(C)C)cc2NC(=O)Nc2cccc(Cl)c2Cl)cc1 [Example 421]		
